Test results taken from the supplement of paper PMC11061612.

Experiments:
AGS (Gastric Carcinoma) [1] = assay: Bliss excess, mean over the matrix (fraction); higher = more synergy
How it was run: (§1)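 Bliss excess equals the observed combination effect minus the expected value EA + EB − EA·EB, where EA and EB are the effects of each agent alone. Combination Emax is the second-highest inhibition within the matrix. Inhibition was scaled from CellTiter-Glo 2.0 luminescence, with 0 set by vehicle wells and 1 by blank wells, after 72 hours of two-drug dosing of cells plated in 1536-well plates.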

42-MG-BA (Glioblastoma) [2] = assay: as above
How it was run: as §1

[3] = test system: MDA-MB-361 (Breast Carcinoma); assay: as above
How it was run: as §1

[4] = test system: KYSE-520 (Esophageal Squamous Cell Carcinoma); assay: as above
How it was run: as §1

[5] = test system: KP-1N (Pancreatic Carcinoma); assay: as above
How it was run: as §1

ES4 (Ewing's Sarcoma) [6] = assay: as above
How it was run: as §1

[7] = test system: TCCSUP (Bladder Carcinoma); assay: as above
How it was run: as §1

[8] = test system: DEL (T-Cell Non-Hodgkin's Lymphoma); assay: as above
How it was run: as §1

[9] = test system: COLO-205 (Colorectal Carcinoma); assay: as above
How it was run: as §1

[10] = test system: RC-K8 (B-Cell Non-Hodgkin's Lymphoma); assay: as above
How it was run: as §1

[11] = test system: MFE-296 (Endometrial Carcinoma); assay: as above
How it was run: as §1

NOS-1 (Osteosarcoma) [12] = assay: as above
How it was run: as §1

[13] = test system: SK-ES-1 (Ewing's Sarcoma); assay: as above
How it was run: as §1

[14] = test system: OVCA420 (Ovarian Carcinoma); assay: as above
How it was run: as §1

[15] = test system: LU-135 (Small Cell Lung Carcinoma); assay: as above
How it was run: as §1

[16] = test system: HuP-T4 (Pancreatic Carcinoma); assay: as above
How it was run: as §1

[17] = test system: EC-GI-10 (Esophageal Squamous Cell Carcinoma); assay: as above
How it was run: as §1

[18] = test system: LNCaP-Clone-FGC (Prostate Carcinoma); assay: as above
How it was run: as §1

[19] = test system: Daoy (Other Solid Carcinomas); assay: as above
How it was run: as §1

[20] = test system: HCC1806 (Breast Carcinoma); assay: as above
How it was run: as §1

[21] = test system: SNU-5 (Gastric Carcinoma); assay: as above
How it was run: as §1

[22] = test system: B-CPAP (Thyroid Gland Carcinoma); assay: as above
How it was run: as §1

AGS (Gastric Carcinoma) [23] = assay: combination Emax (second highest fraction inhibited in the dose matrix, 72 h); higher = more inhibition; extreme values may be limits of the assay
How it was run: as §1

42-MG-BA (Glioblastoma) [24] = assay: as above
How it was run: as §1

[25] = test system: MDA-MB-361 (Breast Carcinoma); assay: as above
How it was run: as §1

[26] = test system: KYSE-520 (Esophageal Squamous Cell Carcinoma); assay: as above
How it was run: as §1

[27] = test system: KP-1N (Pancreatic Carcinoma); assay: as above
How it was run: as §1

ES4 (Ewing's Sarcoma) [28] = assay: as above
How it was run: as §1

[29] = test system: TCCSUP (Bladder Carcinoma); assay: as above
How it was run: as §1

[30] = test system: DEL (T-Cell Non-Hodgkin's Lymphoma); assay: as above
How it was run: as §1

[31] = test system: COLO-205 (Colorectal Carcinoma); assay: as above
How it was run: as §1

[32] = test system: RC-K8 (B-Cell Non-Hodgkin's Lymphoma); assay: as above
How it was run: as §1

[33] = test system: MFE-296 (Endometrial Carcinoma); assay: as above
How it was run: as §1

NOS-1 (Osteosarcoma) [34] = assay: as above
How it was run: as §1

[35] = test system: SK-ES-1 (Ewing's Sarcoma); assay: as above
How it was run: as §1

[36] = test system: OVCA420 (Ovarian Carcinoma); assay: as above
How it was run: as §1

[37] = test system: LU-135 (Small Cell Lung Carcinoma); assay: as above
How it was run: as §1

[38] = test system: HuP-T4 (Pancreatic Carcinoma); assay: as above
How it was run: as §1

[39] = test system: EC-GI-10 (Esophageal Squamous Cell Carcinoma); assay: as above
How it was run: as §1

[40] = test system: LNCaP-Clone-FGC (Prostate Carcinoma); assay: as above
How it was run: as §1

[41] = test system: Daoy (Other Solid Carcinomas); assay: as above
How it was run: as §1

[42] = test system: HCC1806 (Breast Carcinoma); assay: as above
How it was run: as §1

[43] = test system: SNU-5 (Gastric Carcinoma); assay: as above
How it was run: as §1

[44] = test system: B-CPAP (Thyroid Gland Carcinoma); assay: as above
How it was run: as §1

Work on `CC(=O)c1c(C)c2cnc(Nc3ccc(N4CCNCC4)cn3)nc2n(C2CCCC2)c1=O` [Palbociclib] + CN(CC[C@H](CSC1=CC=CC=C1)NC2=C(C=C(C=C2)S(=O)(=O)NC(=O)C3=CC=C(C=C3)N4CCC(CC4)[C@H](C5=CC=CC=C5C6=CC=C(C=C6)Cl)O)S(=O)(=O)C(F)(F)F)CCO [AZD4320] (first compound max 10 µM, 7x7, partner max 1 µM) yielded a Bliss excess (AGS (Gastric Carcinoma) [1]) of -0.008, a Bliss excess (42-MG-BA (Glioblastoma) [2]) of -0.061 and a Bliss excess [3] of -0.0078. For the same compound, the Bliss excess [4] was -0.0557, the Bliss excess [5] was -0.0305 and the Bliss excess (ES4 (Ewing's Sarcoma) [6]) was -0.113. For the same compound, the Bliss excess [7] was -0.0607, the Bliss excess [8] was -0.0135 and the Bliss excess [9] was -0.0497. It also gave a Bliss excess [10] of 0.0351, a Bliss excess [11] of -0.0227 and a Bliss excess (NOS-1 (Osteosarcoma) [12]) of 0.0414. The Bliss excess [13] was 0.0334, the Bliss excess [14] was -0.0591 and the Bliss excess [15] was 0.0316. The Bliss excess [16] was -0.0026, the Bliss excess [17] was -0.0715 and the Bliss excess [18] was -0.0902. The Bliss excess [19] was 0.0118, the Bliss excess [20] was -0.0398 and the Bliss excess [21] was -0.0446. For the same compound, the Bliss excess [22] was -0.0241, the “combination Emax” value (AGS (Gastric Carcinoma) [23]) was 0.823 and the “combination Emax” value (42-MG-BA (Glioblastoma) [24]) was 0.511. For the same compound, the “combination Emax” value [25] was 0.185, the “combination Emax” value [26] was 0.477 and the “combination Emax” value [27] was 0.27. For the same compound, the “combination Emax” value (ES4 (Ewing's Sarcoma) [28]) was 0.485, the “combination Emax” value [29] was 0.364 and the “combination Emax” value [30] was 0.916. The “combination Emax” value [31] was 0.868, the “combination Emax” value [32] was 0.838 and the “combination Emax” value [33] was 0.293. The “combination Emax” value (NOS-1 (Osteosarcoma) [34]) was 0.952, the “combination Emax” value [35] was 0.956 and the “combination Emax” value [36] was 0.21. The “combination Emax” value [37] was 1, the “combination Emax” value [38] was 0.208 and the “combination Emax” value [39] was 0.493. For the same compound, the “combination Emax” value [40] was 0.534, the “combination Emax” value [41] was 0.368 and the “combination Emax” value [42] was 0.442. For the same compound, the “combination Emax” value [43] was 0.334 and the “combination Emax” value [44] was 0.59.
